Laboratory results published in US20230285557A1, “MULTI-PARALLEL ANALYSIS OF T-CELL THERAPIES” (The Board of Trustees of the Leland Stanford Junior …, priority 2020, published 2023).

How the values were obtained:
PMEL CD8^+ T cells = test: CyTOF phenotyping of ex vivo expanded PMEL T cells stimulated with or without 2HC; assay type: cell-based, murine; conditions: 5 mM 2HC during ex vivo expansion, vs untreated cells (effector and exhausted phenotype)
From the text: This Example describes experiments performed to apply the CyTOF technology to a comprehensively capture the phenotypic space of T cells. As described below, an in-depth understanding of the phenotype of differentially activated tumor-specific T cells can be achieved by using a CyTOF technique. […] Also used in these experiments was a palladium-based mass tag cell barcoding technique that enabled simultaneous analysis and pooling of 20 samples at a time, which allowed efficient multiplexing and reducing batch effects.
Generally, cells were suspended in supplemented media: complete RPMI 1640 media (with glutamine) with 1× non-essential amino acids, 1 mM sodium pyruvate, 0.4× vitamin solution, 92 µM 2-mercaptoethanol, 10 µM ciprofloxacin, 10% fetal bovine serum (FBS), and 50 IU/ml IL-2. At Day 0, splenocytes were used at a concentration of 2×10^6/ml, 100 µL /well in 96 well plate u-bottom. The cultures were started with 100×10^6 cells per condition, in 50 mL T cell media containing 60 IU/mL IL-2, 10 µg/mL GP100, and 5 mM 2HC (85 mg). At Day 3, the cell culture was fed with 50 µL media containing 120 IU/mL IL-2 and 5 mM 2HC. At Day 4, the cell culture was fed with 80 µL media containing 120 IU/mL IL-2 and 5 mM 2HC. […]
On Day 9, cells were counted and harvested into FACS tubes for CyTOF analysis using a panel of CYTOF biomarkers (see, e.g., FIG. 1 and Table 1). […]

T memory stem cells = conditions: previously reported; by altering acetyl-Coenzyme A levels; cited from earlier work

O=C([O-])CC(O)(C(=O)[O-])C(O)C(=O)[O-].[K+].[K+].[K+] (centres unmarked) [2HC, tripotassium 2-hydroxycitrate]
shift of T cell phenotype on incubation with inhibitor of acetyl-CoA production (PMEL CD8^+ T cells): drastically shifted T cells towards a more memory like phenotype | generation of T memory stem cells (T memory stem cells): increases the generation of T memory stem cells
